Three molecules from patent publication US7030246B2, “Tetrahydroquinoline derivatives as stat6-modulators, preparation and use thereof” (Astrazeneca AB, priority 2001, dated 2006) can be followed below.

This experiment relates to STAT6 signaling pathway. Kind of experiment: Inhibition of STAT6-driven reporter gene activity (IL-4 induced luciferase in transfected U937 cells). It is filed as cell-based. To be noted: U-937; U937 cells stably transfected with IL-4 responsive luciferase reporter; 10 ng/ml recombinant human IL-4, 4–5 h; compound added 5 min before IL-4; read-out: IC50 (concentration of compound giving 50 percent inhibition of the luciferase response to addition of IL-4). From the text:
The ability of the compounds described herein to inhibit STAT6 signaling pathway is manifested in their ability to inhibit STAT6 driven reporter gene activity.
The cytokine-responsive human cell line U937 were transfected with a reporter gene plasmid consisting of an interluekin 4 (IL-4) responsive promoter driving the heterologous firefly gene for luciferase. The reporter gene plasmid also contained a gene for neomycin resistance. The IL-4 responsive promoter were constructed by four oligomerized combined C/BEPβ and STAT6 binding sites with the nucleotide sequence […] in close contact with a TATA-box. Cells with a stable integration of the reporter gene plasmid were selected by cultivation in neomycin. Such transfected cells were used for IL-4 induction by adding 10 ng/ml recombinant human IL-4 to 0.5–1×10^6 cells per ml. IL-4 induction were carried out for 4–5 h. Thereafter the cells were lysed and luciferase activity determined by using standard techniques. Numbers measured are the mean fold induction (fold induction for U937 is defined as the luciferase response in an IL-4 treated U937 cell sample divided by the luciferase response in an untreated U937 cell sample). Typically, IL-4 stimulation gave 15–20 fold induction of the luciferase response. Compounds were added 5 min before IL-4 when tested in the reporter gene assay. Compound effect was expressed as the concentration of compound giving 50 percent inhibition (IC50) of the luciferase response to addition of IL-4.
On to `CC(=O)N1c2ccccc2[C@H](Nc2ccc(C)cc2)C[C@@H]1C` (relative stereo) [No 27 Table I, (2S*,4R*)-1-Acetyl-2-methyl-N-(4-methylphenyl)-1,2,3,4-tetrahydro-4-quinolinamine], for which the IC50 worked out at 800 nM.

`CC(=O)N1c2ccccc2[C@H](Nc2ccc(C#N)cc2)C[C@@H]1C` (relative stereo) [No 36 Table I, 4-{[(2S*,4R*)-1-acetyl-2-methyl-1,2,3,4-tetrahydro-4-quinolinyl]amino}benzonitrile]: the IC50 turned out to be 430 nM. With `CC(=O)N1c2ccc(I)cc2[C@H](Nc2ccccc2)C[C@@H]1C` (relative stereo) [No 74 Table I, (2S*,4R*)-1-Acetyl-1,2,3,4-tetrahydro-6-iodo-2-methyl-N-phenyl-4-quinolinamine], the IC50 came out at 180 nM.
